Assay results: ChEMBL document CHEMBL4680220, “Synthesis and biological evaluation of acridine-based histone deacetylase inhibitors as multitarget agents against Alzheimer's disease” (Eur J Med Chem, 2020)

Target: T1, Histone deacetylase 7 (Homo sapiens, UniProt Q8WUI4)
T1 sequence (Q8WUI4 whole entry): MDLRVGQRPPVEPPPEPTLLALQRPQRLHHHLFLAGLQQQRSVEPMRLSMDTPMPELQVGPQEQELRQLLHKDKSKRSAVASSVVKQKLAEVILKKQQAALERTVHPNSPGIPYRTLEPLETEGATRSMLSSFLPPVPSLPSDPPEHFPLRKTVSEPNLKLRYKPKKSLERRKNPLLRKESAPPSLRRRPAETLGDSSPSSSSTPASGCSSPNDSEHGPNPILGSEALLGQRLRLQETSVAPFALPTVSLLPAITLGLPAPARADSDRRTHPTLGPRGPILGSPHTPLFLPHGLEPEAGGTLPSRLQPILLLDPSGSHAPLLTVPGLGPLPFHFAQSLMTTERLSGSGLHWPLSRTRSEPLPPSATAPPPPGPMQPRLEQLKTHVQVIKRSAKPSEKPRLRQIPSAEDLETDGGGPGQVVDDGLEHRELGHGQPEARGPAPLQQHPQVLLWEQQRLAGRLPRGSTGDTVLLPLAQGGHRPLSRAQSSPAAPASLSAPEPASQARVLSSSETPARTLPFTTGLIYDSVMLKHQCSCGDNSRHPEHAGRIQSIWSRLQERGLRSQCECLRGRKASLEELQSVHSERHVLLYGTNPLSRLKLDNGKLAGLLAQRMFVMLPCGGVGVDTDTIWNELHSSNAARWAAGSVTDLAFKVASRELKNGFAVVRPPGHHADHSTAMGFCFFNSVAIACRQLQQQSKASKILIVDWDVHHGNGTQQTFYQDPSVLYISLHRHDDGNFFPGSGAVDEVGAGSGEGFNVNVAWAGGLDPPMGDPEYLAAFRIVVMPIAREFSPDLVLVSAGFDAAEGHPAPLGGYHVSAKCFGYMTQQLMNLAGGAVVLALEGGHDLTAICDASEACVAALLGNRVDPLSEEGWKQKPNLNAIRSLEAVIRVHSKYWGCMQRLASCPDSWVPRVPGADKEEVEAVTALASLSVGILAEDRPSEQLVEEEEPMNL
Experiment: Inhibition of recombinant human N-terminal GST-tagged HDAC7 (518 to end residues) expressed in baculovirus infected Sf9 cells using fluorogenic HDAC 2A substrate preincubated for 5 mins followed by substrate addition and measured after 30 mins by fluorescence assay

SMILES: O=C(NO)c1ccc(Nc2c3ccccc3nc3ccc(Br)cc23)cc1
- IC50: 9.13 µM
